The source of these data is patent publication US10004701B2, “Methods and compositions for treating infection” (UNIVERSITY OF ROCHESTER, priority 2012, dated 2018).

Where two headings read alike, the source gives them in different places.

Common to all, as to experiment: AK assay 384-well format, Prestwick library screening
The test system of test [1] is A. baumannii strain 98-37-09. It counts as cell-based, Acinetobacter baumannii. The note with it: 50 μM final drug concentration; for fold induction at 50 µM: Acinetobacter baumannii, 983709, 3 h.
The subject of test [2] is K. pneumoniae. It counts as cell-based, Klebsiella pneumoniae. The note with it: 50 μM final drug concentration; for fold induction at 50 µM: Klebsiella pneumoniae, 3 h.
Test [3] has as its system E. coli. Format: cell-based, Escherichia coli. The note with it: 50 μM final drug concentration; for fold induction at 50 µM: Escherichia coli, 3 h.
The subject of test [4] is E. faecium. Format: cell-based, Enterococcus faecium. The note with it: 50 μM final drug concentration; for fold induction at 50 µM: Enterococcus faecium, 3 h.
Test [5] concerns P. aeruginosa. It counts as cell-based, Pseudomonas aeruginosa. The note with it: 50 μM final drug concentration; for fold induction at 50 µM: Pseudomonas aeruginosa, 3 h.
For test [6], the system named is E. cloacae. Format: cell-based, Enterobacter cloacae. The note with it: 50 μM final drug concentration; for fold induction at 50 µM: Enterobacter cloacae, 3 h.
In test [7] the test system is S. aureus strain USA300-0114. Format: cell-based, Staphylococcus aureus. The note with it: 50 μM final drug concentration; for fold induction at 50 µM: Staphylococcus aureus, USA300, 3 h.
[8] abbreviates: planktonic, cutoff for positive-scoring molecules 3-fold increase, read-out: AK-based Prestwick Library Screening Results, A. baumannii (fold increase in extracellular AK activity).
Where [9] appears, read: planktonic, cutoff for positive-scoring molecules 3-fold increase, read-out: AK-based Prestwick Library Screening Results, K. pneumoniae (fold increase in extracellular AK activity).
Setting [10] is: planktonic, cutoff for positive-scoring molecules 3-fold increase, read-out: AK-based Prestwick Library Screening Results, E. coli (fold increase in extracellular AK activity).
Setting [11] is: planktonic, cutoff for positive-scoring molecules 3-fold increase, read-out: AK-based Prestwick Library Screening Results, E. faecium (fold increase in extracellular AK activity).
Where [12] appears, read: planktonic, cutoff for positive-scoring molecules 3-fold increase, read-out: AK-based Prestwick Library Screening Results, P. aeruginosa (fold increase in extracellular AK activity).
The mark [13] stands for this setting: planktonic, cutoff for positive-scoring molecules 3-fold increase, read-out: AK-based Prestwick Library Screening Results, E. cloacae (fold increase in extracellular AK activity).
The mark [14] stands for this setting: planktonic, cutoff for positive-scoring molecules 3-fold increase, read-out: AK-based Prestwick Library Screening Results, S. aureus (fold increase in extracellular AK activity).
Where [15] appears, read: planktonic, cutoff for positive-scoring molecules 3-fold increase.

As to `COCCOC(=O)C1=C(C)NC(C)=C(C(=O)OC(C)C)C1c1cccc([N+](=O)[O-])c1` (stereo not drawn) [Nimodipine], the fold induction at 50 µM turned out to be 1 in test [1] (setting [8]); 0.7 in test [2] (setting [9]); 0.9 in test [3] (setting [10]); 1 in test [4] (setting [11]); 0.9 in test [5] (setting [12]); 1.4 in test [6] (setting [13]). The fold induction at 50 µM in test [7] (setting [14]) is 0.7.

As for `O=C1NCCN1c1ncc([N+](=O)[O-])s1` [Niridazole], the fold induction at 50 µM in test [1] (planktonic, cutoff for positive 3-fold increase, read-out: AK-based Prestwick Library Screening Results, A. baumannii (fold increase in extracellular AK activity)) was 1.4; in test [2] (planktonic, cutoff for positive 3-fold increase, read-out: AK-based Prestwick Library Screening Results, K. pneumoniae (fold increase in extracellular AK activity)), 6; in test [3] (planktonic, cutoff for positive 3-fold increase, read-out: AK-based Prestwick Library Screening Results, E. coli (fold increase in extracellular AK activity)) it was 13.2; in test [4] (planktonic, cutoff for positive 3-fold increase, read-out: AK-based Prestwick Library Screening Results, E. faecium (fold increase in extracellular AK activity)), 1; in test [5] (planktonic, cutoff for positive 3-fold increase, read-out: AK-based Prestwick Library Screening Results, P. aeruginosa (fold increase in extracellular AK activity)) it was 1.2; in test [6] (planktonic, cutoff for positive 3-fold increase, read-out: AK-based Prestwick Library Screening Results, E. cloacae (fold increase in extracellular AK activity)), 6.1. Further, the fold induction at 50 µM in test [7] (planktonic, cutoff for positive 3-fold increase, read-out: AK-based Prestwick Library Screening Results, S. aureus (fold increase in extracellular AK activity)) was found to be 1.8.

`COC(=O)C1=C(C)NC(C)=C(C(=O)OCC(C)C)C1c1ccccc1[N+](=O)[O-]` (stereo not drawn) [Nisoldipine]: the fold induction at 50 µM in test [1] (setting [8]) turned out to be 1.4; in test [2] (setting [9]), 0.7; in test [3] (setting [10]) it was 0.9; in test [4] (setting [11]) it was 0.9; in test [5] (setting [12]), 0.8; in test [6] (setting [13]), 1. Besides, the fold induction at 50 µM in test [7] (setting [14]) worked out at 0.4.

`Cl.Cl.c1ccc2c3c([nH]c2c1)C1C2CCC(C4CCCNC42)N1CC3` (stereo not drawn) [Nitrarine dihydrochloride]: the “AK-based Prestwick Library Screening Results, A. baumannii (fold increase in extracellular AK activity)” value in test [1] (setting [15]) was determined as 1.0. For the same molecule, in test [2] (setting [15]), the “AK-based Prestwick Library Screening Results, K. pneumoniae (fold increase in extracellular AK activity)” value is 1.1. The “AK-based Prestwick Library Screening Results, E. coli (fold increase in extracellular AK activity)” value in test [3] (planktonic, […]) is given as 1.2. Further, the “AK-based Prestwick Library Screening Results, E. faecium (fold increase in extracellular AK activity)” value in test [4] (setting [15]) turned out to be 1.0. Also, the “AK-based Prestwick Library Screening Results, P. aeruginosa (fold increase in extracellular AK activity)” value in test [5] (setting [15]) was 1.1. In test [6] (setting [15]), the “AK-based Prestwick Library Screening Results, E. cloacae (fold increase in extracellular AK activity)” value is reported as 1.4. Besides, the “AK-based Prestwick Library Screening Results, S. aureus (fold increase in extracellular AK activity)” value in test [7] (setting [15]) worked out at 1.3.

As for `CCOC(=O)C1=C(C)NC(C)=C(C(=O)OC)C1c1cccc([N+](=O)[O-])c1` (stereo not drawn) [Nitrendipine], the fold induction at 50 µM in test [1] (setting [8]) is 0.9; in test [2] (setting [9]), 0.8; in test [3] (setting [10]) it was 0.8; in test [4] (setting [11]) it was 0.9; in test [5] (setting [12]), 0.9; in test [6] (setting [13]), 1.4. The fold induction at 50 µM in test [7] (setting [14]) stood at 0.4.

`CCN(CC)CCOC(=O)C1(c2ccc([N+](=O)[O-])cc2)CCCC1.Cl` [Nitrocaramiphen hydrochloride]: the “AK-based Prestwick library screening result, A. baumannii (fold increase in extracellular AK activity)” value in test [1] (planktonic A. baumannii, […]) was determined as 0.7. Also, the “AK-based Prestwick library screening result, K. pneumoniae (fold increase in extracellular AK activity)” value in test [2] (planktonic K. pneumoniae, […]) was 0.7. For the same molecule, the “AK-based Prestwick library screening result, E. coli (fold increase in extracellular AK activity)” value in test [3] (planktonic E. coli, […]) was determined as 0.9. Further, the “AK-based Prestwick library screening result, E. faecium (fold increase in extracellular AK activity)” value in test [4] (planktonic E. faecium, […]) is reported as 0.9. Further, the “AK-based Prestwick library screening result, P. aeruginosa (fold increase in extracellular AK activity)” value in test [5] (planktonic P. aeruginosa, […]) is on record as 0.8. In addition, in test [6] (planktonic E. cloacae, […]), the “AK-based Prestwick library screening result, E. cloacae (fold increase in extracellular AK activity)” value came to 1.2. Besides, the “AK-based Prestwick library screening result, S. aureus (fold increase in extracellular AK activity)” value in test [7] (planktonic S. aureus, […]) is reported as 0.6.

Consider `NC(=O)N/N=C/c1ccc([N+](=O)[O-])o1` [Nitrofural], for which the fold induction at 50 µM was found to be 1 in test [1] (planktonic A. baumannii, cutoff for positive-scoring molecules 3-fold increase, read-out: AK-based Prestwick Library Screening Results, A. baumannii (increase in extracellular AK activity)); 0.2 in test [2] (planktonic K. pneumoniae, cutoff for positive-scoring molecules 3-fold increase, read-out: AK-based Prestwick Library Screening Results, K. pneumoniae (increase in extracellular AK activity)); 0.7 in test [3] (planktonic E. coli, cutoff for positive-scoring molecules 3-fold increase, read-out: AK-based Prestwick Library Screening Results, E. coli (increase in extracellular AK activity)); 1 in test [4] (planktonic E. faecium, cutoff for positive-scoring molecules 3-fold increase, read-out: AK-based Prestwick Library Screening Results, E. faecium (increase in extracellular AK activity)); 0.8 in test [5] (planktonic P. aeruginosa, cutoff for positive-scoring molecules 3-fold increase, read-out: AK-based Prestwick Library Screening Results, P. aeruginosa (increase in extracellular AK activity)); 0.8 in test [6] (planktonic E. cloacae, cutoff for positive-scoring molecules 3-fold increase, read-out: AK-based Prestwick Library Screening Results, E. cloacae (increase in extracellular AK activity)). For the same molecule, the fold induction at 50 µM in test [7] (planktonic S. aureus, cutoff for positive-scoring molecules 3-fold increase, read-out: AK-based Prestwick Library Screening Results, S. aureus (increase in extracellular AK activity)) stood at 0.5.

Consider `O=C1CN(/N=C/c2ccc([N+](=O)[O-])o2)C(=O)N1` [Nitrofurantoin], for which the fold induction at 50 µM in test [1] (384-well format, cutoff for positive-scoring molecules 3-fold increase, read-out: AK-based Prestwick Library Screening Results, A. baumannii (increase in extracellular AK activity)) is 0.5; in test [2] (384-well format, cutoff for positive-scoring molecules 3-fold increase, read-out: AK-based Prestwick Library Screening Results, K. pneumoniae (increase in extracellular AK activity)) it was 0.8; in test [3] (384-well format, cutoff for positive-scoring molecules 3-fold increase, read-out: AK-based Prestwick Library Screening Results, E. coli (increase in extracellular AK activity)), 0.4; in test [4] (384-well format, cutoff for positive-scoring molecules 3-fold increase, read-out: AK-based Prestwick Library Screening Results, E. faecium (increase in extracellular AK activity)) it was 1; in test [5] (384-well format, cutoff for positive-scoring molecules 3-fold increase, read-out: AK-based Prestwick Library Screening Results, P. aeruginosa (increase in extracellular AK activity)), 0.4; in test [6] (384-well format, cutoff for positive-scoring molecules 3-fold increase, read-out: AK-based Prestwick Library Screening Results, E. cloacae (increase in extracellular AK activity)), 0.6. Besides, the fold induction at 50 µM in test [7] (384-well format, cutoff for positive-scoring molecules 3-fold increase, read-out: AK-based Prestwick Library Screening Results, S. aureus (increase in extracellular AK activity)) came to 0.4.

As for `CNC(=C[N+](=O)[O-])NCCSCc1csc(CN(C)C)n1` [Nizatidine], the fold induction at 50 µM in test [1] (cutoff for positive-scoring molecules 3-fold increase, read-out: AK-based Prestwick Library Screening Results, A. baumannii (fold increase in extracellular AK activity)) turned out to be 1; in test [2] (cutoff for positive-scoring molecules 3-fold increase, read-out: AK-based Prestwick Library Screening Results, K. pneumoniae (fold increase in extracellular AK activity)) it was 0.9; in test [3] (cutoff for positive-scoring molecules 3-fold increase, read-out: AK-based Prestwick Library Screening Results, E. coli (fold increase in extracellular AK activity)), 1.3; in test [4] (cutoff for positive-scoring molecules 3-fold increase, read-out: AK-based Prestwick Library Screening Results, E. faecium (fold increase in extracellular AK activity)), 1; in test [5] (cutoff for positive-scoring molecules 3-fold increase, read-out: AK-based Prestwick Library Screening Results, P. aeruginosa (fold increase in extracellular AK activity)), 1.2; in test [6] (cutoff for positive-scoring molecules 3-fold increase, read-out: AK-based Prestwick Library Screening Results, E. cloacae (fold increase in extracellular AK activity)) it was 1.7. In addition, the fold induction at 50 µM in test [7] (cutoff for positive-scoring molecules 3-fold increase, read-out: AK-based Prestwick Library Screening Results, S. aureus (fold increase in extracellular AK activity)) stood at 1.2.
